Activity calls are given as the source filed them. No cut-off for these calls is given here.
Experiments:
Cucumis sativus [1] = test: Inhibition of fatty acid synthesis in Cucumis sativus (cucumber) using [14C]acetate assessed as [14C]-labeled 18C fatty acid level at 100 uM after 3 hr by liquid scintillation counting (reference value: 26.6 +/- 1.6%); format: functional; set-up: scale not given: the % may be the effect or the level left
Hordeum vulgare [2] = test: Inhibition of fatty acid synthesis in Hordeum vulgare (barley) using [14C]malonate assessed as [14C]-labeled 16C fatty acid level at 100 uM after 3 hr by liquid scintillation counting (reference value: 3.1 +/- 0.6%); format: functional; set-up: scale not given: the % may be the effect or the level left
Acetyl-CoA carboxylase [3] = biological target: T1, Acetyl-CoA carboxylase (Zea mays, UniProt Q3V4E6); test: Inhibition of Zea mays (maize) chloroplastic ACCase using acetyl-coA as substrate assessed as inhibition of [14C]NaHCO3 incorporation into malonyl-coA incubated for 10 min prior to substrate addition measured for 20 min by liquid scintillation counting
Hordeum vulgare [4] = test: Inhibition of fatty acid synthesis in Hordeum vulgare (barley) using [14C]acetate assessed as [14C]-labeled 20C fatty acid level at 100 uM after 3 hr by liquid scintillation counting (reference value: 3.8 +/- 0.6%); format: functional; set-up: scale not given: the % may be the effect or the level left
Cucumis sativus [5] = test: Inhibition of fatty acid synthesis in Cucumis sativus (cucumber) assessed as inhibition of [14C]malonate incoporation in total fatty acids at 100 uM measured as total disintegration per g of fresh weight after 3 hr by liquid scintillation counting (reference value: 7.6 +/- 1.6%); format: functional
Cucumis sativus [6] = test: Inhibition of fatty acid synthesis in Cucumis sativus (cucumber) using [14C]malonate assessed as [14C]-labeled 24C fatty acid level at 100 uM after 3 hr by liquid scintillation counting (reference value: 9 +/- 2.5%); format: functional; set-up: scale not given: the % may be the effect or the level left
Hordeum vulgare [7] = test: Inhibition of fatty acid synthesis in Hordeum vulgare (barley) using [14C]acetate assessed as [14C]-labeled 22C fatty acid level at 100 uM after 3 hr by liquid scintillation counting (reference value: 8.3 +/- 0.9%); format: functional; set-up: scale not given: the % may be the effect or the level left
Cucumis sativus [8] = test: Inhibition of fatty acid synthesis in Cucumis sativus (cucumber) using [14C]malonate assessed as [14C]-labeled 22C fatty acid level at 100 uM after 3 hr by liquid scintillation counting (reference value: 48.5 +/- 6.4%); format: functional; set-up: scale not given: the % may be the effect or the level left
Hordeum vulgare [9] = test: Inhibition of fatty acid synthesis in Hordeum vulgare (barley) using [14C]malonate assessed as [14C]-labeled 20C fatty acid level at 100 uM after 3 hr by liquid scintillation counting (reference value: 14.5 +/- 1.7%); format: functional; set-up: scale not given: the % may be the effect or the level left
Acetyl-CoA carboxylase [10] = biological target: T1, Acetyl-CoA carboxylase; test: Inhibition of Zea mays (maize) cytosolic ACCase using acetyl-coA as substrate assessed as inhibition of [14C]NaHCO3 incorporation into malonyl-coA incubated for 10 min prior to substrate addition measured for 20 min by liquid scintillation counting
Cucumis sativus [11] = test: Inhibition of fatty acid synthesis in Cucumis sativus (cucumber) using [14C]malonate assessed as [14C]-labeled 18C fatty acid level at 100 uM after 3 hr by liquid scintillation counting (reference value: 22.5 +/- 2.2%); format: functional; set-up: scale not given: the % may be the effect or the level left
Cucumis sativus [12] = test: Inhibition of fatty acid synthesis in Cucumis sativus (cucumber) using [14C]acetate assessed as [14C]-labeled 22C fatty acid level at 100 uM after 3 hr by liquid scintillation counting (reference value: 25.5 +/- 2%); format: functional; set-up: scale not given: the % may be the effect or the level left
Hordeum vulgare [13] = test: Inhibition of fatty acid synthesis in Hordeum vulgare (barley) using [14C]acetate assessed as [14C]-labeled 18C fatty acid level at 100 uM after 3 hr by liquid scintillation counting (reference value: 53.7 +/- 0.7%); format: functional; set-up: scale not given: the % may be the effect or the level left
Hordeum vulgare [14] = test: Inhibition of fatty acid synthesis in Hordeum vulgare (barley) using [14C]acetate assessed as [14C]-labeled 24C fatty acid level at 100 uM after 3 hr by liquid scintillation counting (reference value: 5 +/- 0.8%); format: functional; set-up: scale not given: the % may be the effect or the level left
Hordeum vulgare [15] = test: Inhibition of fatty acid synthesis in Hordeum vulgare (barley) using [14C]malonate assessed as [14C]-labeled 24C fatty acid level at 100 uM after 3 hr by liquid scintillation counting (reference value: 20 +/- 1.2%); format: functional; set-up: scale not given: the % may be the effect or the level left
Hordeum vulgare [16] = test: Inhibition of fatty acid synthesis in Hordeum vulgare (barley) using [14C]acetate assessed as [14C]-labeled 16C fatty acid level at 100 uM after 3 hr by liquid scintillation counting (reference value: 29.2 +/- 2.1%); format: functional; set-up: scale not given: the % may be the effect or the level left
Cucumis sativus [17] = test: Inhibition of fatty acid synthesis in Cucumis sativus (cucumber) using [14C]malonate assessed as [14C]-labeled 20C fatty acid level at 100 uM after 3 hr by liquid scintillation counting (reference value: 11.5 +/- 3%); format: functional; set-up: scale not given: the % may be the effect or the level left
Hordeum vulgare [18] = test: Inhibition of fatty acid synthesis in Hordeum vulgare (barley) assessed as inhibition of [14C]acetate incoporation in total fatty acids at 100 uM measured as total disintegration per g of fresh weight after 3 hr by liquid scintillation counting (reference value: 9.2 +/- 2.4%); format: functional
Hordeum vulgare [19] = test: Inhibition of fatty acid synthesis in Hordeum vulgare (barley) using [14C]malonate assessed as [14C]-labeled 26C fatty acid level at 100 uM after 3 hr by liquid scintillation counting (reference value: 8.3 +/- 0.4%); format: functional; set-up: scale not given: the % may be the effect or the level left
Hordeum vulgare [20] = test: Inhibition of fatty acid synthesis in Hordeum vulgare (barley) using [14C]malonate assessed as [14C]-labeled 22C fatty acid level at 100 uM after 3 hr by liquid scintillation counting (reference value: 31.3 +/- 1.6%); format: functional; set-up: scale not given: the % may be the effect or the level left
Cucumis sativus [21] = test: Inhibition of fatty acid synthesis in Cucumis sativus (cucumber) using [14C]acetate assessed as reduction in [14C]-labeled 24C fatty acid level at 100 uM after 3 hr by liquid scintillation counting relative to control; format: functional, organism-based
Hordeum vulgare [22] = test: Inhibition of fatty acid synthesis in Hordeum vulgare (barley) using [14C]malonate assessed as [14C]-labeled 18C fatty acid level at 100 uM after 3 hr by liquid scintillation counting (reference value: 22.8 +/- 2.7%); format: functional; set-up: scale not given: the % may be the effect or the level left
Cucumis sativus [23] = test: Inhibition of fatty acid synthesis in Cucumis sativus (cucumber) using [14C]acetate assessed as [14C]-labeled 20C fatty acid level at 100 uM after 3 hr by liquid scintillation counting (reference value: 9 +/- 0.9%); format: functional; set-up: scale not given: the % may be the effect or the level left
Cucumis sativus [24] = test: Inhibition of fatty acid synthesis in Cucumis sativus (cucumber) using [14C]malonate assessed as [14C]-labeled 16C fatty acid level at 100 uM after 3 hr by liquid scintillation counting (reference value: 8.5 +/- 1.4%); format: functional; set-up: scale not given: the % may be the effect or the level left
Hordeum vulgare [25] = test: Inhibition of fatty acid synthesis in Hordeum vulgare (barley) assessed as inhibition of [14C]malonate incoporation in total fatty acids at 100 uM measured as total disintegration per g of fresh weight after 3 hr by liquid scintillation counting (reference value: 8.8 +/- 2.4%); format: functional
Cucumis sativus [26] = test: Inhibition of fatty acid synthesis in Cucumis sativus (cucumber) assessed as inhibition of [14C]acetate incoporation in total fatty acids at 100 uM measured as total disintegration per g of fresh weight after 3 hr by liquid scintillation counting (reference value: 12.1 +/- 1.4%); format: functional
Cucumis sativus [27] = test: Inhibition of fatty acid synthesis in Cucumis sativus (cucumber) using [14C]acetate assessed as [14C]-labeled 16C fatty acid level at 100 uM after 3 hr by liquid scintillation counting (reference value: 31.9 +/- 5%); format: functional; set-up: scale not given: the % may be the effect or the level left

T1 sequence (Q3V4E6 whole entry): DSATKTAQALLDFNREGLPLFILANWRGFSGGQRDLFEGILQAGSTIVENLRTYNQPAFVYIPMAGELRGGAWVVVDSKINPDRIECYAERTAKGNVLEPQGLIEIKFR

Cc1sc(-c2ccc(Cl)cc2)nc1C1C(=O)CC2(CCCCC2)C1=O (configuration not stated) [Spiro-decanedione A]
Activity (Cucumis sativus [1]): 43.8%
Activity (Hordeum vulgare [2]): 0.9%
IC50 (Acetyl-CoA carboxylase [3]): 8 nM
Activity (Hordeum vulgare [4]): 24.4%
Activity (Cucumis sativus [5]): 12.7 ×10⁶ dpm
Activity (Cucumis sativus [6]): 10%
Activity (Hordeum vulgare [7]): 33.7%
Activity (Cucumis sativus [8]): 43%
Activity (Hordeum vulgare [9]): 15.8%
IC50 (Acetyl-CoA carboxylase [10]): 20 nM
Activity (Cucumis sativus [11]): 20%
Activity (Cucumis sativus [12]): 2.3%
Activity (Hordeum vulgare [13]): 20.5%
Activity (Hordeum vulgare [14]): 16.8%
Activity (Hordeum vulgare [15]): 25.3%
Activity (Hordeum vulgare [16]): 4.6%
Activity (Cucumis sativus [17]): 18.1%
Activity (Hordeum vulgare [18]): 3.6 ×10⁶ dpm
Activity (Hordeum vulgare [19]): 8.2%
Activity (Hordeum vulgare [20]): 31.2%
inhibition (Cucumis sativus [21]): Active
Activity (Hordeum vulgare [22]): 18.6%
Activity (Cucumis sativus [23]): 3.4%
Activity (Cucumis sativus [24]): 8.9%
Activity (Hordeum vulgare [25]): 9.9 ×10⁶ dpm
Activity (Cucumis sativus [26]): 14.3 ×10⁶ dpm
Activity (Cucumis sativus [27]): 50.5%

From ChEMBL document CHEMBL3044779, “The action of herbicides on fatty acid biosynthesis and elongation in barley and cucumber” (Pest Manag Sci, 2010)
